From ChEMBL document CHEMBL1137440, “Kinesin spindle protein (KSP) inhibitors. Part 6: Design and synthesis of 3,5-diaryl-4,5-dihydropyrazole amides as potent inhibitors of the mitotic kinesin KSP” (Bioorg Med Chem Lett, 2007)
Calls of active or inactive are those of the source. The calls are words filed in the database; no cut-off is given here.

What was measured:
[1] = system: Plasma; experiment: Drug level in A2780 cells bearing mouse plasma, po; assay type: functional
[2] = system: Plasma; experiment: Protein binding in mouse plasma; assay type: functional, cell-free
[3] = system: Plasma; experiment: Protein binding in human plasma; assay type: functional, cell-free
[4] = organism: Canis familiaris; experiment: Induction of drug-induced QTc prolongation in dog cardiovascular model at less than 10 uM; assay type: functional, organism-based; details: Canis lupus familiaris; Heart
[5] = organism: Canis familiaris; experiment: Induction of drug-induced QTc prolongation in dog cardiovascular model at 40 uM; assay type: functional, organism-based; details: Canis lupus familiaris, Heart
[6] = system: A2780; experiment: Mitotic arrest in A2780 cells bearing mouse at 3 mg/kg after 22 hrs by phospho-Histone immunohistochemistry assay; assay type: functional, organism-based; design: dose 3 mg/kg
[7] = system: Plasma; experiment: Drug level in A2780 cell bearing mouse plasma at 3 mg/kg, po; assay type: functional, organism-based; design: dose 3 mg/kg

| Compound | Cp [1] [nM] | PPB [2] [%] | PPB [3] [%] | Activity [4] | Activity [5] | Activity [6] | Cp [7] [nM] |
| --- | --- | --- | --- | --- | --- | --- | --- |
| CC(=O)N1CCN(CCC[C@@]2(c3ccccc3)CC(c3cc(F)ccc3F)=NN2C(C)=O)CC1 | 56 | 92 | 91 | Active |  |  |  |
| CC(=O)N1N=C(c2cc(F)ccc2F)C[C@@]1(C[C@H](F)CN)c1ccccc1 |  |  |  |  | inactive | Active | 38 |
